Laboratory results published in patent US20260285850A1, “SUBSTITUTED OXAZOLIDINONES AND IMIDAZOLINONES AS HERBICIDES” (FMC CORPORATION, priority 2023, published 2026).

Tests used:
Type in all cases: in vivo
[1] = system: palmer (palmer amaranth, palmer pigweed, Amaranthus palmeri); assay: Test A postemergence application, visual injury rating 0-100
Outline: (§1)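 Visual injury ratings (0, no effect; 100, complete control) were assigned relative to untreated plants 10 days after treatment. Test chemicals, formulated with a surfactant-containing non-phytotoxic solvent, were applied in loam-sand soil either as a directed soil spray before emergence or to emerged plants, and plants were kept in a greenhouse.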

[2] = system: galium (catchweed bedstraw, Galium aparine); assay: as above
Outline: as §1

[3] = system: barnyardgrass (Echinochloa crus-galli); assay: as above
Outline: as §1

[4] = system: ryegrass, Italian (italian ryegrass, Lolium multiflorum); assay: as above
Outline: as §1

[5] = system: blackgrass (Alopecurus myosuroides); assay: as above
Outline: as §1

[6] = system: ragweed (common ragweed, Ambrosia artemisiifolia); assay: as above
Outline: as §1

[7] = system: oat, wild (wild oat, Avena fatua); assay: as above
Outline: as §1

[8] = system: wheat (Triticum aestivum); assay: as above
Outline: as §1

corn (Zea mays) [9] = assay: as above
Outline: as §1

soybean (Glycine max) [10] = assay: as above
Outline: as §1

[11] = system: horseweed (Erigeron canadensis); assay: as above
Outline: as §1

[12] = system: green foxtail (Setaria viridis); assay: as above
Outline: as §1

kochia (Bassia scoparia) [13] = assay: as above
Outline: as §1

[14] = system: barnyardgrass (Echinochloa crusgalli); assay: Test B flooded paddy test, visual plant response rating 0-100; conditions: 250 g ai/ha, Flood, applied to paddy water, evaluated after 13 days
Outline: (§2)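 Compounds applied to standing paddy water (3 cm above soil, maintained for the test duration) on 2-leaf-stage plants; visual rating vs controls at 13 days, greenhouse.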

[15] = system: sedge, umbrella (small-flower umbrella sedge, Cyperus difformis); assay: as above; conditions: 250 g ai/ha, Flood, applied to paddy water, evaluated after 13 days
Outline: as §2

[16] = system: ducksalad (Heteranthera limosa); assay: as above; conditions: 250 g ai/ha, Flood, applied to paddy water, evaluated after 13 days
Outline: as §2

rice (Oryza sativa) = assay: as above; conditions: 250 g ai/ha, Flood, applied to paddy water, evaluated after 13 days
Outline: as §2

[17] = system: barnyardgrass (Echinochloa crus-galli); assay: Test A preemergence soil spray, visual injury rating 0-100; conditions: 10 days
Outline: as §1

[18] = system: ryegrass, Italian (italian ryegrass, Lolium multiflorum); assay: as above; conditions: 10 days
Outline: as §1

[19] = system: blackgrass (Alopecurus myosuroides); assay: as above; conditions: 10 days
Outline: as §1

[20] = system: ragweed (common ragweed, Ambrosia artemisiifolia); assay: as above; conditions: 10 days
Outline: as §1

[21] = system: oat, wild (wild oat, Avena fatua); assay: as above; conditions: 10 days
Outline: as §1

[22] = system: wheat (Triticum aestivum); assay: as above; conditions: 10 days
Outline: as §1

corn (Zea mays) [23] = assay: as above; conditions: 10 days
Outline: as §1

soybean (Glycine max) [24] = assay: as above; conditions: 10 days
Outline: as §1

[25] = system: green foxtail (Setaria viridis); assay: as above; conditions: 10 days
Outline: as §1

kochia (Bassia scoparia) [26] = assay: as above; conditions: 10 days
Outline: as §1

[27] = 62 g ai/ha, postemergence, 10 days, 0 = no effect, 100 = complete control
[28] = Postemergence, 16 g ai/ha, greenhouse 10 days, 0 no effect, 100 complete control
[29] = 62 g ai/ha, 0 = no effect, 100 = complete control

CC1(C(=O)NC2CC(C(=O)O)C2)CN(c2cc(F)cc(Cl)c2)C(=O)O1 (racemic) [Compound 139]
100: Barnyardgrass plant response rating (0-100) [3, 27] | Blackgrass plant response rating (0-100) [5, 27] | Corn plant response rating (0-100) (corn (Zea mays) [9]; [27]) | Corn plant response rating (0 to 100 scale) (corn (Zea mays) [9]; [28])
90: Barnyardgrass plant response rating (0 to 100 scale) [3, 28] | Blackgrass plant response rating (0 to 100 scale) [5, 28] | Oat, Wild plant response rating (0-100) [7, 27] | Wheat plant response rating (0-100) [8, 27] | Wheat plant response rating (0 to 100 scale) [8, 28] | Foxtail, Green plant response rating (0-100) [12, 27] | Foxtail, Green plant response rating (0 to 100 scale) [12, 28] | Kochia plant response rating (0-100) (kochia (Bassia scoparia) [13]; [27]) | Ryegrass, Italian plant response rating (0-100) [18, 29] | Wheat plant response rating ([22]; 16 g ai/ha, 0 to 100 scale) | Wheat plant response rating (0-100) [22, 29] | Corn plant response rating (0-100) (corn (Zea mays) [23]; [29]) | Foxtail, Green plant response rating (0-100) [25, 29] | Kochia plant response rating (0-100) (kochia (Bassia scoparia) [26]; [29])
20: Pigweed, Palmer plant response rating (0 to 100 scale) [1, 28] | Blackgrass plant response rating ([19]; 16 g ai/ha, 0 to 100 scale) | Oat, Wild plant response rating ([21]; 16 g ai/ha, 0 to 100 scale)
10: Barnyardgrass plant response rating ([17]; 16 g ai/ha, 0 to 100 scale)
60: Soybean plant response rating (0-100) (soybean (Glycine max) [10]; [27]) | Soybean plant response rating (0 to 100 scale) (soybean (Glycine max) [10]; [28])
0: Horseweed plant response rating (0 to 100 scale) [11, 28] | Plant response rating, Barnyardgrass (0 to 100 scale, 0 is no effect and 100 is complete control) [14] | Plant response rating, Sedge, Umbrella (0 to 100 scale, 0 is no effect and 100 is complete control) [15] | Plant response rating, Ducksalad (0 to 100 scale, 0 is no effect and 100 is complete control) [16] | Plant response rating, Rice (0 to 100 scale, 0 is no effect and 100 is complete control) (rice (Oryza sativa)) | Ragweed plant response rating ([20]; 16 g ai/ha, 0 to 100 scale) | Ragweed plant response rating (0-100) [20, 29] | Corn plant response rating (corn (Zea mays) [23]; 16 g ai/ha, 0 to 100 scale) | Soybean plant response rating (soybean (Glycine max) [24]; 16 g ai/ha, 0 to 100 scale) | Soybean plant response rating (0-100) (soybean (Glycine max) [24]; [29]) | Kochia plant response rating (kochia (Bassia scoparia) [26]; 16 g ai/ha, 0 to 100 scale)
50: Galium plant response rating (0 to 100 scale) [2, 28] | Horseweed plant response rating (0-100) [11, 27]
80: Galium plant response rating (0-100) [2, 27] | Blackgrass plant response rating (0-100) [19, 29] | Oat, Wild plant response rating (0-100) [21, 29]
70: Pigweed, Palmer plant response rating (0-100) [1, 27] | Ryegrass, Italian plant response rating (0-100) [4, 27] | Oat, Wild plant response rating (0 to 100 scale) [7, 28] | Kochia plant response rating (0 to 100 scale) (kochia (Bassia scoparia) [13]; [28]) | Barnyardgrass plant response rating (0-100) [17, 29]
40: Ragweed plant response rating (0-100) [6, 27] | Ragweed plant response rating (0 to 100 scale) [6, 28]
30: Ryegrass, Italian plant response rating (0 to 100 scale) [4, 28] | Ryegrass, Italian plant response rating ([18]; 16 g ai/ha, 0 to 100 scale) | Foxtail, Green plant response rating ([25]; 16 g ai/ha, 0 to 100 scale)
